The values below come from publication PMC2813692 (Molecular cancer therapeutics, 2008).

The nature of series [1]: Plasma pharmacokinetics by LC-MS/MS.
Series [2] concerns subjects of the Adenoma Prevention with Celecoxib Trial. Particulars: ref [32], cited from earlier work.
In series [3] the test system is metastatic colorectal cancer. The conditions noted are these: second-line single-agent; ref [33]; cited from earlier work.
Setting [4] is: capecitabine 1,000 mg/m^2 alone (run-in, Pre), mean ± SD in 8 patients.
Setting [5] is: capecitabine 1,000 mg/m^2 in combination with 250 mg gefitinib, C1D1, mean ± SD in 8 patients.

In general, CL/F refers to clearance divided by bioavailability, as obtained after extravascular dosing. Usually Vd/F stands for the volume of distribution divided by bioavailability. One may read the AUC(0-inf) as total exposure, with the tail of the curve extrapolated. Regarding `CCCCCOC(=O)Nc1nc(=O)n([C@@H]2O[C@H](C)[C@@H](O)[C@H]2O)cc1F` [capecitabine], the “effect of gefitinib on the AUC, Cmax, t1/2, and clearance of capecitabine” value in series [1] (alone (run-in day) vs in combination with gefitinib (cycle 1 day 1)) is given as “no significant effects”. Besides, the CL/F in series [1] (setting [4]) was 272 ± 120 L/h; in series [1] (setting [5]), 300 ± 204 L/h. The t1/2λ in series [1] (setting [4]) came out at 0.93 ± 0.92 h; in series [1] (setting [5]), 1.09 ± 0.80 h. The compound also came in with a Vd/F in series [1] (human, plasma, oral, 1000 mg/m^2) of 363 ± 364 L. Besides, the AUC(0-inf) in series [1] (human, plasma, oral, AUC0→∞, capecitabine 1,000 mg/m^2 in combination with 250 mg gefitinib, C1D1, mean ± SD in 8 patients) was determined as 13.2 ± 8.1 µM·h.

As to `Cc1ccc(-c2cc(C(F)(F)F)nn2-c2ccc(S(N)(=O)=O)cc2)cc1` [celecoxib], the “subjects who experienced cardiovascular events” value in series [2] (35 of 1,356 subjects who received celecoxib) was 2.6%. The “increase in risk of major fatal and nonfatal cardiovascular events” value in series [2] (compared with placebo) is given as 2.5 fold. Besides, in series [1] (across any of the doses tested (data not shown)), the “steady-state plasma trough levels of celecoxib” value was “Neither capecitabine nor gefitinib affected”.

As for `COc1cc2ncnc(Nc3ccc(F)c(Cl)c3)c2cc1OCCCN1CCOCC1` [gefitinib], the “effect of capecitabine on the trough levels of gefitinib” value in series [1] (across dose levels) is given as “did not affect”.

For the compound `O=C1[O][Pt]2([NH][C@@H]3CCCC[C@H]3[NH]2)[O]C1=O` [oxaliplatin], in series [3], the response rate is recorded as 10%.
